Measurements taken from PubChem BioAssay AID200 (DTP/NCI, 2004).
Where “and” joins values, the source holds several entries; their conditions need not be identical. Identical values can stand only once. Inconclusive results and toxic doses are left out. The calls were made as follows: active = survival T/C of 150% or more; inactive = T/C below 125% in these data.

Tested on: B6C3F1 mice, B16 melanoma ip, median survival T/C
Assay: NCI In Vivo Anticancer Drug Screen. Data for tumor model B16 Melanoma (intraperitoneal) in B6C3F1 mice
Conditions: endpoint: median survival time, higher = longer survival
Outline: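 Mice bearing transplanted tumor were dosed with compound or vehicle, and survival was recorded. Activity is expressed as the treated-group measurement (T) divided by the vehicle control measurement (C).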

[1] = dose: 25.0 mg/kg/injection, schedule: Q01DX009 (ip), vehicle: Klucel (hydroxypropylcellulose) (HPC)
[2] = dose: 50.0 mg/kg/injection, schedule: Q01DX009 (ip), vehicle: Klucel (hydroxypropylcellulose) (HPC)
[3] = dose: 100.0 mg/kg/injection, schedule: Q01DX009 (ip), vehicle: Klucel (hydroxypropylcellulose) (HPC)
[4] = dose: 200.0 mg/kg/injection, schedule: Q01DX009 (ip), vehicle: Klucel (hydroxypropylcellulose) (HPC)
[5] = dose: 400.0 mg/kg/injection, schedule: Q01DX009 (ip), vehicle: Klucel (hydroxypropylcellulose) (HPC)
[6] = dose: 50.0 mg/kg/injection, schedule: Q01DX009 (ip), vehicle: saline with Tween-80

Measured: T/C

COCC1OC2OC3C(COC)OC(OC4C(COC)OC(OC5C(COC)OC(OC6C(COC)OC(OC7C(COC)OC(OC8C(COC)OC(OC1C(O)C2O)C(O)C8O)C(O)C7O)C(O)C6O)C(O)C5O)C(O)C4O)C(O)C3O (configuration not stated) (tested in a mixture with another compound)
inactive: [1] 87 % of control | dose: 25.0 mg/kg/injection, schedule: Q04HX027 (ip), vehicle: Klucel (hydroxypropylcellulose) (HPC) 93 % of control | [2] 90 % of control | dose: 50.0 mg/kg/injection, schedule: Q01DX009 (oral), vehicle: Klucel (hydroxypropylcellulose) (HPC) 93 % of control | dose: 50.0 mg/kg/injection, schedule: Q04HX027 (ip), vehicle: Klucel (hydroxypropylcellulose) (HPC) 86 % of control | dose: 50.0 mg/kg/injection, schedule: Q04HX027 (oral), vehicle: Klucel (hydroxypropylcellulose) (HPC) 97 % of control | [3] 105 % of control | dose: 100.0 mg/kg/injection, schedule: Q01DX009 (oral), vehicle: Klucel (hydroxypropylcellulose) (HPC) 89 % of control and 93 % of control | dose: 100.0 mg/kg/injection, schedule: Q04HX027 (ip), vehicle: Klucel (hydroxypropylcellulose) (HPC) 97 % of control | dose: 100.0 mg/kg/injection, schedule: Q04HX027 (oral), vehicle: Klucel (hydroxypropylcellulose) (HPC) 106 % of control | [4] 90 % of control | dose: 200.0 mg/kg/injection, schedule: Q04HX027 (oral), vehicle: Klucel (hydroxypropylcellulose) (HPC) 105 % of control | [5] 86 % of control | dose: 400.0 mg/kg/injection, schedule: Q01DX009 (oral), vehicle: Klucel (hydroxypropylcellulose) (HPC) 86 % of control and 102 % of control | dose: 400.0 mg/kg/injection, schedule: Q04HX027 (oral), vehicle: Klucel (hydroxypropylcellulose) (HPC) 101 % of control | dose: 800.0 mg/kg/injection, schedule: Q01DX009 (oral), vehicle: Klucel (hydroxypropylcellulose) (HPC) 93 % of control | dose: 800.0 mg/kg/injection, schedule: Q04HX027 (oral), vehicle: Klucel (hydroxypropylcellulose) (HPC) 110 % of control | dose: 1600.0 mg/kg/injection, schedule: Q01DX009 (oral), vehicle: Klucel (hydroxypropylcellulose) (HPC) 92 % of control | dose: 1600.0 mg/kg/injection, schedule: Q04HX027 (oral), vehicle: Klucel (hydroxypropylcellulose) (HPC) 103 % of control | dose: 3200.0 mg/kg/injection, schedule: Q01DX009 (oral), vehicle: Klucel (hydroxypropylcellulose) (HPC) 95 % of control

CN(N=O)C(=O)N[C@@H](C=O)[C@@H](O)[C@H](O)[C@H](O)CO
inactive: dose: 12.5 mg/kg/injection, schedule: Q01DX009 (ip), vehicle: other 115 % of control | dose: 25.0 mg/kg/injection, schedule: Q01DX009 (ip), vehicle: other 120 % of control

CN=C(N)c1ccc(N=C(N)c2ccc(C(N)=Nc3ccc(C(N)=NC)cc3)cc2)cc1
inactive: dose: 7.5 mg/kg/injection, schedule: Q01DX009 (ip), vehicle: saline 95 % of control | dose: 15.0 mg/kg/injection, schedule: Q01DX009 (ip), vehicle: saline 89 % of control

CCCCCCCCCCCCO[P+](=O)OCCCCCCCCCCCC
inactive: [6] 94 % of control | dose: 100.0 mg/kg/injection, schedule: Q01DX009 (ip), vehicle: saline with Tween-80 96 % of control

O=C(Nc1ccccc1)c1c(O)[nH]c(=O)[nH]c1=O
inactive: dose: 12.5 mg/kg/injection, schedule: Q01DX009 (ip), vehicle: saline with Tween-80 103 % of control | dose: 25.0 mg/kg/injection, schedule: Q01DX009 (ip), vehicle: saline with Tween-80 110 % of control and 100 % of control | [6] 114 % of control and 115 % of control

COc1cc(OC)c(OC)cc1/C=C\c1ccnc2ccccc12
active: [5] 151 % of control
inactive: dose: 12.5 mg/kg/injection, schedule: Q01DX009 (ip), vehicle: Klucel (hydroxypropylcellulose) (HPC) 98 % of control | [1] 105 % of control | [2] 108 % of control and 111 % of control | [3] 120 % of control and 107 % of control | [4] 97 % of control

COC(=O)Nc1cn2ccc(C(Cl)=C(Cl)Cl)cc2n1
inactive: [2] 111 % of control | [3] 116 % of control
